# In patent publication US20250282827A1, “LIPIDATED POLYMYXIN ANALOGUES” (priority 2021, published 2025):
# Like-named read-outs stand apart in the source and are kept apart here. Positions of bridges follow the written chain, without caps; N, C: chain ends. Non-standard residues stand in square brackets, D forms with d. Residues, ends and D or L forms follow the SMILES beside them. *: point of attachment. CH2CH2OBz(4-tBu) = CC(C)(C)c1ccc(C(=O)OCC*)cc1; Ethyl(2-decanoyloxy) = CCCCCCCCCC(=O)OCC*; Ethyl(2-butanoyloxy) = CCCC(=O)OCC*; Ethyl(2-propionyloxy) = CCC(=O)OCC*; Ethyl(2-OBz) = O=C(OCC*)c1ccccc1; X14 = CCCCCCCCCCCC(=O)OCC*; hCys = N[C@@H](CCS)C(=O)O; Octanoyl = CCCCCCCC(=O)*; Dab = NCC[C@H](N)C(=O)O; Dap = NC[C@H](N)C(=O)O; X4 = CCCCCCCC(=O)OCC*; X1 = CCCCCC(=O)OCC*; Mpa = O=C(O)CCS
# Test system: E. coli ATCC 25922
# Format: cell-based, Escherichia coli
# Source text: All 81 compounds prepared in Examples 2 and 3 underwent screening against a panel of Gram-negative bacterium to assess their ability to inhibit bacterial growth. […] The median value is presented.
Compound,MIC E. coli ATCC 25922 (ATCC 25922),also measured
CC(C)C[C@@H]1NC(=O)[C@@H](Cc2ccccc2)NC(=O)[C@H](CCN)NC(=O)[C@@H](NC(=O)[C@H](CCN)NC(=O)[C@@H](NC(=O)[C@@H](N)CSCCOC(=O)c2ccc(C(C)(C)C)cc2)[C@@H](C)O)CCNC(=O)[C@H]([C@@H](C)O)NC(=O)[C@H](CCN)NC(=O)[C@H](CCN)NC1=O [Compound 73] (H-C(CH2CH2OBz(4-tBu))T[Dab][Dab][Dab][dF]L[Dab][Dab]T; lactam 4-C),1 µg/mL,
CCC(=O)OCCSCC[C@H](N)C(=O)N[C@H](C(=O)N[C@@H](CCN)C(=O)N[C@H]1CCNC(=O)[C@H]([C@@H](C)O)NC(=O)[C@H](CCN)NC(=O)[C@H](CCN)NC(=O)[C@H](CC(C)C)NC(=O)[C@@H](Cc2ccccc2)NC(=O)[C@H](CCN)NC1=O)[C@@H](C)O [Compound 64] (H-[hCys](Ethyl(2-propionyloxy))T[Dab][Dab][Dab][dF]L[Dab][Dab]T; lactam 4-C),>128 µg/mL,
CCC(=O)OCCSCCC(=O)N[C@H](C(=O)N[C@H](CO)C(=O)N[C@H]1CCNC(=O)[C@H]([C@@H](C)O)NC(=O)[C@H](CCN)NC(=O)[C@H](CCN)NC(=O)[C@H](CC(C)C)NC(=O)[C@@H](Cc2ccccc2)NC(=O)[C@H](CCN)NC1=O)[C@@H](C)O [Compound 87] ([Mpa](Ethyl(2-propionyloxy))T[dS][Dab][Dab][dF]L[Dab][Dab]T; lactam 4-C),16 µg/mL,
"CCCCCCCC(=O)N[C@@H](CCN)C(=O)N[C@H](C(=O)N[C@@H](CCN)C(=O)N[C@H]1CCNC(=O)[C@H]([C@@H](C)O)NC(=O)[C@H](CCN)NC(=O)[C@H](CCN)NC(=O)[C@H](CC(C)C)NC(=O)[C@@H](Cc2ccccc2)NC(=O)[C@H](CCN)NC1=O)[C@@H](C)O [polymyxin B3, reference compound] (Octanoyl-[Dab]T[Dab][Dab][Dab][dF]L[Dab][Dab]T; lactam 4-C (inferred); N-terminus assumed)",,activity against E. coli (MIC) (ATCC 25922): 0.25 µg/mL
CC(C)C[C@@H]1NC(=O)[C@@H](Cc2ccccc2)NC(=O)[C@H](CCN)NC(=O)[C@@H](NC(=O)[C@H](CCN)NC(=O)[C@@H](NC(=O)[C@@H](N)CSCCOC(=O)c2ccccc2)[C@@H](C)O)CCNC(=O)[C@H]([C@@H](C)O)NC(=O)[C@H](CCN)NC(=O)[C@H](CCN)NC1=O [Compound 72] (H-C(Ethyl(2-OBz))T[Dab][Dab][Dab][dF]L[Dab][Dab]T; lactam 4-C),,MIC E. coli ATCC 25922 (median of triplicate): 8 µg/mL
CCC(=O)OCCSCCC(=O)N[C@H](C(=O)N[C@@H](CN)C(=O)N[C@H]1CCNC(=O)[C@H]([C@@H](C)O)NC(=O)[C@H](CCN)NC(=O)[C@H](CCN)NC(=O)[C@H](CC(C)C)NC(=O)[C@@H](Cc2ccccc2)NC(=O)[C@H](CCN)NC1=O)[C@@H](C)O [Compound 83] ([Mpa](Ethyl(2-propionyloxy))T[Dap][Dab][Dab][dF]L[Dab][Dab]T; lactam 4-C),2 µg/mL,
CCC(=O)OCCSCCC(=O)N[C@H](C(=O)N[C@@H](CCN)C(=O)N[C@H]1CCNC(=O)[C@H]([C@@H](C)O)NC(=O)[C@H](CCN)NC(=O)[C@H](CCN)NC(=O)[C@H](CC(C)C)NC(=O)[C@@H](Cc2ccccc2)NC(=O)[C@H](CCN)NC1=O)[C@@H](C)O [Compound 63] ([Mpa](Ethyl(2-propionyloxy))T[Dab][Dab][Dab][dF]L[Dab][Dab]T; lactam 4-C),8 µg/mL,
CCC(=O)OCCSC[C@H](N)C(=O)N[C@H](C(=O)N[C@H](CO)C(=O)N[C@H]1CCNC(=O)[C@H]([C@@H](C)O)NC(=O)[C@H](CCN)NC(=O)[C@H](CCN)NC(=O)[C@H](CC(C)C)NC(=O)[C@@H](Cc2ccccc2)NC(=O)[C@H](CCN)NC1=O)[C@@H](C)O [Compound 85] (H-C(Ethyl(2-propionyloxy))T[dS][Dab][Dab][dF]L[Dab][Dab]T; lactam 4-C),>128 µg/mL,
CC(C)C[C@@H]1NC(=O)[C@@H](Cc2ccccc2)NC(=O)[C@H](CCN)NC(=O)[C@@H](NC(=O)[C@H](CCN)NC(=O)[C@@H](NC(=O)[C@H](N)CSCCOC(=O)c2ccc(C(C)(C)C)cc2)[C@@H](C)O)CCNC(=O)[C@H]([C@@H](C)O)NC(=O)[C@H](CCN)NC(=O)[C@H](CCN)NC1=O [Compound 80] (H-[dC](CH2CH2OBz(4-tBu))T[Dab][Dab][Dab][dF]L[Dab][Dab]T; lactam 4-C),0.5 µg/mL,
CCC(=O)OCCSC[C@H](N)C(=O)N[C@H](C(=O)N[C@@H](CN)C(=O)N[C@H]1CCNC(=O)[C@H]([C@@H](C)O)NC(=O)[C@H](CCN)NC(=O)[C@H](CCN)NC(=O)[C@H](CC(C)C)NC(=O)[C@@H](Cc2ccccc2)NC(=O)[C@H](CCN)NC1=O)[C@@H](C)O [Compound 81] (H-C(Ethyl(2-propionyloxy))T[Dap][Dab][Dab][dF]L[Dab][Dab]T; lactam 4-C),16 µg/mL,
CCC(=O)OCCSCC[C@H](N)C(=O)N[C@H](C(=O)N[C@H](CO)C(=O)N[C@H]1CCNC(=O)[C@H]([C@@H](C)O)NC(=O)[C@H](CCN)NC(=O)[C@H](CCN)NC(=O)[C@H](CC(C)C)NC(=O)[C@@H](Cc2ccccc2)NC(=O)[C@H](CCN)NC1=O)[C@@H](C)O [Compound 88] (H-[hCys](Ethyl(2-propionyloxy))T[dS][Dab][Dab][dF]L[Dab][Dab]T; lactam 4-C),>64 µg/mL,
CCC(=O)OCCSC[C@@H](N)C(=O)N[C@H](C(=O)N[C@@H](CN)C(=O)N[C@H]1CCNC(=O)[C@H]([C@@H](C)O)NC(=O)[C@H](CCN)NC(=O)[C@H](CCN)NC(=O)[C@H](CC(C)C)NC(=O)[C@@H](Cc2ccccc2)NC(=O)[C@H](CCN)NC1=O)[C@@H](C)O [Compound 82] (H-[dC](Ethyl(2-propionyloxy))T[Dap][Dab][Dab][dF]L[Dab][Dab]T; lactam 4-C),1 µg/mL,

# More lines, main results first:
MIC E. coli ATCC 25922 (ATCC 25922),Compound,also measured
1 µg/mL,CCC(=O)OCCSC[C@@H](N)C(=O)N[C@H](C(=O)N[C@@H](CCN)C(=O)N[C@H]1CCNC(=O)[C@H]([C@@H](C)O)NC(=O)[C@H](CCN)NC(=O)[C@H](CCN)NC(=O)[C@H](CC(C)C)NC(=O)[C@@H](Cc2ccccc2)NC(=O)[C@H](CCN)NC1=O)[C@@H](C)O [Compound 62] (H-[dC](Ethyl(2-propionyloxy))T[Dab][Dab][Dab][dF]L[Dab][Dab]T; lactam 4-C),
4 µg/mL,CCCCCC(=O)OCCSC[C@H](N)C(=O)N[C@H](C(=O)N[C@@H](CCN)C(=O)N[C@H]1CCNC(=O)[C@H]([C@@H](C)O)NC(=O)[C@H](CCN)NC(=O)[C@H](CCN)NC(=O)[C@H](CC(C)C)NC(=O)[C@@H](Cc2ccccc2)NC(=O)[C@H](CCN)NC1=O)[C@@H](C)O [Compound 67] (H-C(X1)T[Dab][Dab][Dab][dF]L[Dab][Dab]T; lactam 4-C),
8 µg/mL,CCCCCCCCCCCC(=O)OCCSC[C@H](N)C(=O)N[C@H](C(=O)N[C@@H](CCN)C(=O)N[C@H]1CCNC(=O)[C@H]([C@@H](C)O)NC(=O)[C@H](CCN)NC(=O)[C@H](CCN)NC(=O)[C@H](CC(C)C)NC(=O)[C@@H](Cc2ccccc2)NC(=O)[C@H](CCN)NC1=O)[C@@H](C)O [Compound 70] (H-C(X14)T[Dab][Dab][Dab][dF]L[Dab][Dab]T; lactam 4-C),
1 µg/mL,CCCCCCCC(=O)OCCSC[C@H](N)C(=O)N[C@H](C(=O)N[C@@H](CCN)C(=O)N[C@H]1CCNC(=O)[C@H]([C@@H](C)O)NC(=O)[C@H](CCN)NC(=O)[C@H](CCN)NC(=O)[C@H](CC(C)C)NC(=O)[C@@H](Cc2ccccc2)NC(=O)[C@H](CCN)NC1=O)[C@@H](C)O [Compound 68] (H-C(X4)T[Dab][Dab][Dab][dF]L[Dab][Dab]T; lactam 4-C),
16 µg/mL,CCCC(=O)OCCSC[C@H](N)C(=O)N[C@H](C(=O)N[C@@H](CCN)C(=O)N[C@H]1CCNC(=O)[C@H]([C@@H](C)O)NC(=O)[C@H](CCN)NC(=O)[C@H](CCN)NC(=O)[C@H](CC(C)C)NC(=O)[C@@H](Cc2ccccc2)NC(=O)[C@H](CCN)NC1=O)[C@@H](C)O [Compound 66] (H-C(Ethyl(2-butanoyloxy))T[Dab][Dab][Dab][dF]L[Dab][Dab]T; lactam 4-C),
64 µg/mL,CCC(=O)OCCSC[C@H](N)C(=O)N[C@H](C(=O)N[C@@H](CCN)C(=O)N[C@H]1CCNC(=O)[C@H]([C@@H](C)O)NC(=O)[C@H](CCN)NC(=O)[C@H](CCN)NC(=O)[C@H](CC(C)C)NC(=O)[C@@H](Cc2ccccc2)NC(=O)[C@H](CCN)NC1=O)[C@@H](C)O [Compound 65] (H-C(Ethyl(2-propionyloxy))T[Dab][Dab][Dab][dF]L[Dab][Dab]T; lactam 4-C),
0.125 µg/mL,CCCCCC(=O)OCCSC[C@@H](N)C(=O)N[C@H](C(=O)N[C@@H](CCN)C(=O)N[C@H]1CCNC(=O)[C@H]([C@@H](C)O)NC(=O)[C@H](CCN)NC(=O)[C@H](CCN)NC(=O)[C@H](CC(C)C)NC(=O)[C@@H](Cc2ccccc2)NC(=O)[C@H](CCN)NC1=O)[C@@H](C)O [Compound 76] (H-[dC](X1)T[Dab][Dab][Dab][dF]L[Dab][Dab]T; lactam 4-C),
2 µg/mL,CCCCCCCCCC(=O)OCCSC[C@H](N)C(=O)N[C@H](C(=O)N[C@@H](CCN)C(=O)N[C@H]1CCNC(=O)[C@H]([C@@H](C)O)NC(=O)[C@H](CCN)NC(=O)[C@H](CCN)NC(=O)[C@H](CC(C)C)NC(=O)[C@@H](Cc2ccccc2)NC(=O)[C@H](CCN)NC1=O)[C@@H](C)O [Compound 69] (H-C(Ethyl(2-decanoyloxy))T[Dab][Dab][Dab][dF]L[Dab][Dab]T; lactam 4-C),
1 µg/mL,CCCC(=O)OCCSC[C@@H](N)C(=O)N[C@H](C(=O)N[C@@H](CCN)C(=O)N[C@H]1CCNC(=O)[C@H]([C@@H](C)O)NC(=O)[C@H](CCN)NC(=O)[C@H](CCN)NC(=O)[C@H](CC(C)C)NC(=O)[C@@H](Cc2ccccc2)NC(=O)[C@H](CCN)NC1=O)[C@@H](C)O [Compound 75] (H-[dC](Ethyl(2-butanoyloxy))T[Dab][Dab][Dab][dF]L[Dab][Dab]T; lactam 4-C),
0.25 µg/mL,CCCCCCCC(=O)OCCSC[C@@H](N)C(=O)N[C@H](C(=O)N[C@@H](CCN)C(=O)N[C@H]1CCNC(=O)[C@H]([C@@H](C)O)NC(=O)[C@H](CCN)NC(=O)[C@H](CCN)NC(=O)[C@H](CC(C)C)NC(=O)[C@@H](Cc2ccccc2)NC(=O)[C@H](CCN)NC1=O)[C@@H](C)O [Compound 77] (H-[dC](X4)T[Dab][Dab][Dab][dF]L[Dab][Dab]T; lactam 4-C),
